These results are taken from patent US20230348486A1, “NEAR-INFRARED EMITTING PORPHYRIN COMPOUND AND PREPARATION METHOD AND USE THEREOF” (PEKING UNIVERSITY, priority 2020, published 2023).

The test system of data set [1] is HepG2 human liver cancer cells. Kind of data set: Cytophototoxicity test (CCK-8) under white light. The class given is cell-based. The conditions noted are these: 0.5 h, white light 400-700 nm, about 6.5 mW/cm^2, 30 minutes, read-out: median lethal concentration IC50. Here is the method:
(§1) The cells used in the experiment included HeLa human cervical cancer cells, HepG2 human liver cancer cells, A375 human malignant melanoma cells, MCF7 human breast cancer cells, and HCT 116 human colon cancer cells. The cells were cultured in DMEM complete medium supplemented with 10% inactivated fetal bovine serum and 1% penicillin-streptomycin at 37° C. under the atmosphere of 5% carbon dioxide.
(§2) After trypsinized, the subculture HeLa cells were dispersed in the medium at appropriate concentration. Then, the dispersed HeLa cells were seeded into a poly-D-lysine modified flat-bottom 96-well plate, so that the amount of medium and the number of cells in each well were 200 µL and about 10^4, respectively, except a group of wells containing medium free of cells for blank control. After culturing the cells in the dark for 24 hours, the medium was removed, and 100 µL of fresh medium and 100 µL of pre-prepared medium solution containing molecule 6 synthesised in Example 6 were added, and then the sample was diluted to a gradient concentration of 0.1-5 µM. After culturing in the dark for another 24 hours, the medium was removed, and each well was rinsed 3 times with PBS (pH=7.4). 100µL of PBS buffer was added to each well, and irradiated
(§3) by white light (400-700 nm) with the same light intensity (about 6.5 mW/cm^2) under bromo-tungsten lamp for 30 minutes. The PBS in each well was removed and replaced with 200 µL of fresh medium to continue culturing for 24 hours. After that, the medium was removed and the wells were rinsed 3 times with PBS. Then 100 µL of 10% CCK-8 reagent (Cell Counting Kit-8) formulated with medium was added into each well to culture the cells for 2 hours. Meanwhile, 2-(2-methoxy-4-nitrophenyl)-3-(4-nitrophenyl)-5-(2,4-disulfonic acid benzene)-2H-[…] monosodium salt (WST-8) can be reduced by living cells together with electronic coupling reagents to yield a yellow product of formazan, accordingly changing the absorbance of the solution at 450 nm, and there was a direct proportional relationship between the change level and the number of living cells. The absorbance change of each well at 450 nm was measued by a microplate reader, and the cell survival rates at various culture concentrations were calculated according to the following equation: […]
(§4) wherein CV refers to the cell survival rate; As, Ac and Ab refer to the absorbance of the cells cultured with the compound, the absorbance of the cells cultured without the compound and the absorbance of the blank control, respectively.
(§5) The median lethal concentrations IC50 of molecule 6 in different cell lines were calculated according to the cell survival rates at various culture concentrations, and the results were shown as follows: […]

The test system of data set [2] is HCT 116 human colon cancer cells. Kind of data set: Cytophototoxicity test (CCK-8) under white light. The class given is cell-based. The settings on record: HCT-116, 0.5 h, HCT116, white light 400-700 nm, about 6.5 mW/cm^2, 30 minutes, read-out: median lethal concentration IC50. As for the experimental part: as §1, §2, §3, §4, §5
For data set [3], the system named is MCF7 human breast cancer cells. The data set is described as follows: Cytophototoxicity test (CCK-8) under white light. In kind it is cell-based. The settings on record: 0.5 h, white light 400-700 nm, about 6.5 mW/cm^2, 30 minutes, read-out: median lethal concentration IC50. Here is the method:
as §1, §2, §3, §4, §5

In data set [4] the test system is HeLa human cervical cancer cells. Kind of data set: Cytophototoxicity test (CCK-8) under white light. The class given is cell-based. The settings on record: 24 h incubation in the dark, white light 400-700 nm, about 6.5 mW/cm^2, 30 minutes, CCK-8 after 24 hours, read-out: median lethal concentration IC50. Here is the method:
as §1, §2, §3, §4, §5

For data set [5], the system named is A375 human malignant melanoma cells. Kind of data set: Cytophototoxicity test (CCK-8) under white light. In kind it is cell-based. The settings on record: A-375, 0.5 h, white light 400-700 nm, about 6.5 mW/cm^2, 30 minutes, read-out: median lethal concentration IC50. Here is the method:
as §1, §2, §3, §4, §5

Data set [6] has the same test system. Kind of data set: Animal test of photodynamic therapy, subcutaneous tumor model. The class given is in vivo, BALB/C nude mice. The settings on record: skin application, 10 mg·kg^-1, light 400-700 nm, 2 weeks, FIG. 2. As for the experimental part:
BALB/C nude mice, which were 4-5 weeks old, females, 16-25 grams, were used in the in vivo experiment. Each mouse was inoculated with 100ul (5×10^6) of A375 human malignant melanoma cells subcutaneously in the right scapula, and the experiment was carried out two weeks later.
The nude mice were randomly individed to control group and skin application group with 6 mice in each group. The control group was only irradiated with light (tungsten lamp, 400-700 nm, 6.5 mW/cm^2) without administration, and the 1 mM/20 ul aqueous solution of molecule 6 was administrated to the skin application group in an amount of 10 mg·kg^-1 based on the weights of the nude mice. After administrated, the animals were protected from light for 24 hours, and then were each individually irradiated on their tumor sites for 30 minutes a day for consecutive 3 days. The nude mice were not protected from light after the treatment, and were took care in a breeding cage to observe the side effects such as skin phototoxicity appeared on each group of nude mice. After irradiated, the weights of nude mice were measured and their tumor volume were determined with vernier calipers every two days. After 2 weeks of treatment, the lumps were peeled off and weighed.

On to `C[N+](C)(C)c1c(F)c(F)c(-c2c3nc(c(-c4c(F)c(F)c([N+](C)(C)C)c(F)c4F)c4ccc([nH]4)c4c(nc5oc6c(F)c([N+](C)(C)C)c(F)c(F)c6c5c5ccc2[nH]5)oc2c(F)c([N+](C)(C)C)c(F)c(F)c24)C=C3)c(F)c1F` [molecule 6], for which the IC50 came to 800 ± 100 nM in data set [1]; 1520 ± 200 nM in data set [2]; 850 ± 100 nM in data set [3]; 2690 ± 100 nM in data set [4]; 4750 ± 500 nM in data set [5]. Besides, the “change of tumor size (growth of subcutaneous tumors)” value in data set [6] (6.5 mW/cm^2, 30 minutes a day for 3 days) is reported as “effectively inhibit the growth of subcutaneous tumors”. The “change of weight of the mice” value in data set [6] (30 minutes a day for 3 days) is “no significant decrease”.
